How the values were obtained:
Aβ levels in the brain = assay: Dietary cholesterol and Aβ levels in rat cerebral cortex; format: in vivo; conditions: 20 month old rats, high cholesterol diet (5% cholesterol) vs low cholesterol diet (0.1% cholesterol), 10 weeks
Description: These experiments were performed on 20 month old rats. The rats were fed a low cholesterol diet (0.1% cholesterol) or a high cholesterol diet (5% cholesterol). After 10 weeks, the animals were sacrificed and the cortex was removed for measurement of Aβ levels. Aβ was assayed by immunoprecipitating cortical homogenates with the Aβ antibody B12, followed by Western blotting with the commercially available Aβ monoclonal antibody 4G8.

[1] = test system: Aβ production by human cortical neurons; assay: Effect of HMG CoA reductase inhibitors on Aβ levels in human cortical neuronal cultures; format: cell-based; conditions: 100 μM, 48 hours
Description: Busciglio et al., (1993) Proc. Nat. Acad. Sci. 90, 2092-2096, described the production of Aβ by human cortical neurons in culture . To determine whether cholesterol can affect the production of Aβ, primary human brain cultures were established from the cortex of 16-20 week fetal abortuses, and the neurons incubated in the absence or presence of very low density lipoprotein (VLDL), low density lipoprotein (LDL) or high density lipoprotein (HDL) particles isolated from human plasma. These lipoprotein particles are the physiological vehicles for the transport of cholesterol to cells. The effects of the different lipoprotein particles on the levels of Aβ in the human cortical cultures was determined. The human cortical cultures were maintained in serum-free Dulbecco's Modified Eagle's Medium (DMEM) with N2 supplements (a serum-free supplement that supports neuronal viability). The medium was then changed to the same medium (controls) or medium supplemented with VLDL, LDL, or HDL particles. After incubation for 48-72 hours, Aβ was measured by immunoprecipitation of the culture medium with a polyclonal antibody to Aβ (B12), followed by Western blotting with a mohoclonal antibody to Aβ (6E10). […] The bands corresponding to the 40 and 42 amino acid form of Aβ were analyzed quantitatively using a computer software program. […]

levels of Aβ relative to controls [1]	Compound	increase in Aβ levels in rat cerebral cortex (Aβ levels in the brain)
	CC(C)CCC[C@@H](C)[C@H]1CC[C@H]2[C@@H]3CC=C4C[C@@H](O)CC[C@]4(C)[C@H]3CC[C@]12C [cholesterol]	about 50%
significantly decreased levels of Aβ	CC[C@H](C)C(=O)O[C@H]1C[C@@H](C)C=C2C=C[C@H](C)[C@H](CC[C@@H]3C[C@@H](O)CC(=O)O3)[C@H]21 [lovastatin]	

Reference: patent US6440387B1, “Methods for determining risk of Alzheimer's disease” (Children's Medical Center Corporation, priority 1998, dated 2002)
